In US3998971A, “Novel N-vinyloxyethyl-α-methyl-β-phenethylamines for depressing appetite” (Abbott Laboratories, priority 1975, dated 1976):
“Also recorded” adds a separate entry of the source. Structures can show the parent of a compound that is named as a salt.

Key:
[1] = Comparison with fenfluramine: stimulating properties; format: in vivo; conditions: HCl salts, in words
[2] = test system: Rats; experiment: Reduction of food consumption in rats (average daily consumption of food, ED50); format: in vivo, rat; conditions: for % Change From Control Value in Average Daily Consumption of Food: one hour prior to feeding; for potency compared with fenfluramine: HCl salts, summary in words; for ED50: Rattus norvegicus, po, read-out: Calculated ED50 (dose necessary to reduce the intake of food by 50%); for Relative Potency: Summary of Table II, fenfluramine = 1
Protocol: Table II records the percent change in average daily consumption of food at various dosage levels upon administration of fenfluramine or the HCl salt of the compounds of formula B in which R is Cl or CF3 as well as the dose in milligrams per killograms necessary to reduce the intake of food by 50% (ED 50). […] In this study, drugs were administered one hour prior to feeding on the fifth day of regular food intake at doses of 5, 10 and 20 milligrams per killogram, with five rats being dosed at each level and fifteen rats serving as controls.
*ED50 : dose (mg/kg) necessary to reduce the intake of food by 50%.

[3] = test system: rat serum lipids and glucose; experiment: Effect of pre-treatment on rat serum lipids and glucose induced by olive oil gavage; format: in vivo, rat (male Sprague Dawley); conditions: for Serum Free Fatty Acids: 20 mg/kg i.p. 2 hours before olive oil (20 ml/kg gavage); for Serum Free Fatty Acids / Serum Concentration, Cholesterol / Serum Concentration, Glucose / Serum Concentration, Glycerol / Serum Concentration, Triglycerides: blood 3 hours after oil; for Serum Concentration, Cholesterol / Serum Concentration, Glucose / Serum Concentration, Glycerol / Serum Concentration, Triglycerides: 20 mg/kg i.p. 2 hours before olive oil; for inhibiting the increase in serum triglycerides induced by olive oil gavage: % of the oil treated group; for reduction of olive oil induced increase in serum cholesterol: HCl salts; for inhibiting the increase in serum triglycerides, compared with fenfluramine: olive oil gavage
Description: The effect of pre-treatment with fenfluramine and the HCl salts of the compounds of formula B in which R is Cl or CF3 on rat serum lipids and glucose induced by olive oil gavage.
The present study was designed to compare the effects of fenfluramine, and the HCl salts of the compounds of formula B in which R=Cl and CF3 on serum glucose and lipid parameters in male rats after an olive oil meal.
Twenty-four male Sprague Dawley rats (200-250 g.) were divided into 8 groups as follows:
The animals were not fasted. Where indicated, the rats were pre-treated (intraperitoneally) with the appropriate drug for 2 hours prior to the administration of olive oil. Three hours after olive oil treatment, the animals were anesthetized with ether and blood samples obtained by cardiac puncture of the exposed heart. In each case, total treatment time was 5 hours.

[4] = Solubility of the salt in water; conditions: HCl salt
[5] = test system: Rats; experiment: Acute Toxicity in Rats; format: in vivo, rat; conditions: for Mortality Ratio / toxicity relative to fenfluramine: rats; for toxicity compared with fenfluramine / toxicity relative to fenfluramine: HCl salts; for toxicity compared with fenfluramine: summary in words; for toxicity relative to fenfluramine: acute
[6] = Acute Toxicity in Rats; format: in vivo, rat; conditions: rat, in vivo, po; P.O., rats; range in parentheses; read-out: Calculated LD50
[7] = test system: Rats; experiment: Sidman Avoidance Test in the Rat; format: in vivo, rat (male, Long Evans black-hooded); conditions: for effect on performance / behavior: 8 mg/kg; for effect on performance / behavior / effect on performance in Sidman Avoidance test / effect on response rate / effect on shock rate: in words; for effect on performance in Sidman Avoidance test / effect on response rate / effect on shock rate: overall
Protocol: The compound fenfluramine and the HCl salt compound of formula B in which R is Cl were examined in the Sidman Avoidance test.
Fenfluramine was run as a standard compound for comparative purposes in the study of appetite-suppressing drugs. The effects of drug-induced behavior are evaluated using the technique of Sidman Avoidance (Sidman, M., J. Comp. Physiol. Psychol. 46:253-261, 1953).
Male, Long Evans black-hooded rats (Simonsen Labs) weighing approximately 500 grams are run individually in Lehigh Valley Electronics rodent test chambers. Sessions (day/night) are 7.5 hours and 14 hours in length, respectively. The paradigm consists of two distinct temporal intervals for neither of which is the rat given any exteroceptive cues. The amount of time that elapses between shocks designates the shock-shock interval, is of a predetermined fixed length (10 seconds), and programmed by a recycling timer. When the rat responds by pressing a lever, the shock-shock interval is terminated and the response-shock interval is started. This interval is also of a predetermined fixed length (30 seconds) and programmed by a recycling timer. Both timers never operate simultaneously. The response-shock interval begins anew each time the rat responds on the lever. If the interval should elapse without the rat responding, a Shock (0.5 seconds, 10 mA) is given via the grid floor and the response-shock interval ends and the shock-shock interval begins.
Drug effects are evaluated as a precentage deviation of the rat's behavior from his baseline rate (responses/minute and shocks/minute). These effects are analyzed in 15 minute segments and an overall percentage deviation (response index and shock index) is determined.
based on an 8 mg/kg oral dose.

[8] = test system: Mouse; experiment: Symtomatology Tests in the Mouse; format: in vivo; conditions: for stimulant effects: low doses (10-50 mg/kg)
Description: Symtomatology Tests in the Mouse

[9] = test system: plasma free fatty acids and triglycerides; conditions: cited from earlier work
[10] = test system: diabetics; conditions: cited from earlier work
[11] = 8 mg/kg oral, 7.5 hours session, 4 rats

C=COCCNC(C)Cc1cccc(C(F)(F)F)c1 (stereo not drawn) [HCl Salt, R=CF3, N-(2-vinyloxyethyl)-α-methyl-β-(3-trifluoromethylphenyl) Phenethylamine Hydrochloride]
stimulating properties [1]: minimum stimulating properties | % Change From Control Value in Average Daily Consumption of Food ([2]; 5 mg/kg P.O., rats): -22.9% | % Change From Control Value in Average Daily Consumption of Food ([2]; 10 mg/kg P.O., rats): -28.3% | % Change From Control Value in Average Daily Consumption of Food ([2]; 20 mg/kg P.O., rats): -76.0% | potency compared with fenfluramine [2]: considerably more potent | ED50 ([2]; P.O., rats): 17.4 mg/kg | Relative Potency [2]: 1.2 | potency relative to fenfluramine (times) ([2]; rats, P.O.): ~1.2 times | Serum Free Fatty Acids [3]: 870±61 μEq/liter | Serum Concentration, Cholesterol [3]: 122±10 mg% | Serum Concentration, Glucose [3]: 159±7 mg% | Serum Concentration, Glycerol [3]: 2.1±.40 mg% | Serum Concentration, Triglycerides [3]: 62±13 mg% | inhibiting the increase in serum triglycerides induced by olive oil gavage [3]: 50-55% | reduction of olive oil induced increase in serum cholesterol [3]: 14-19% | inhibiting the increase in serum triglycerides, compared with fenfluramine ([3]; in words): comparable to fenfluramine | solubility in water [4]: soluble in water | Mortality Ratio ([5]; 0.5 gm/kg P.O.): 0/6 | Mortality Ratio ([5]; 0.75 gm/kg P.O.): 1/6 | Mortality Ratio ([5]; 0.85 gm/kg P.O.): 2/6 | Mortality Ratio ([5]; 1.0 gm/kg P.O.): 4/6 | Mortality Ratio ([5]; 2.00 gm/kg P.O.): 5/6 | toxicity compared with fenfluramine [5]: considerably less toxic than fenfluramine | toxicity relative to fenfluramine [5]: approximately four times less toxic than fenfluramine | LD50 [6]: 1010 mg/kg

C=COCCNC(C)Cc1ccc(Cl)cc1 (stereo not drawn) [HCl Salt, R=Cl, N-(2-vinyloxyethyl)-α-methyl-β-(4-cholorophenyl) ethylamine hydrochloride]
stimulating properties [1]: minimum stimulating properties | % Change From Control Value in Average Daily Consumption of Food ([2]; 5 mg/kg P.O., rats): -24.5% | % Change From Control Value in Average Daily Consumption of Food ([2]; 10 mg/kg P.O., rats): -53.5% | % Change From Control Value in Average Daily Consumption of Food ([2]; 20 mg/kg P.O., rats): -87.3% | potency compared with fenfluramine [2]: considerably more potent | ED50 ([2]; P.O., rats): 7.7 mg/kg | Relative Potency [2]: 2.5 | potency relative to fenfluramine (times) ([2]; rats, P.O.): approximately 2.5 times | Shock Rate (percentage deviation from baseline rate) [7, 11]: -55% | effect on performance / behavior [7]: did not significantly affect behavior except for the parameter of shock rate which was reduced | effect on performance in Sidman Avoidance test [7]: did not affect performance significantly overall | effect on response rate [7]: response rate remaining stable | effect on shock rate [7]: sharp decrease in shock rate | Serum Free Fatty Acids [3]: 780±66 μEq/liter | Serum Concentration, Cholesterol [3]: 116±8 mg% | Serum Concentration, Glucose [3]: 159±1 mg% | Serum Concentration, Glycerol [3]: 1.8±.30 mg% | Serum Concentration, Triglycerides [3]: 62±7 mg% | inhibiting the increase in serum triglycerides induced by olive oil gavage [3]: 50-55% | reduction of olive oil induced increase in serum cholesterol [3]: 14-19% | inhibiting the increase in serum triglycerides, compared with fenfluramine ([3]; in words): comparable to fenfluramine | solubility in water [4]: soluble in water | Mortality Ratio ([5]; 0.25 gm/kg P.O.): 0/6 | Mortality Ratio ([5]; 0.5 gm/kg P.O.): 1/6 | Mortality Ratio ([5]; 1.0 gm/kg P.O.): 3/6 | Mortality Ratio ([5]; 1.25 gm/kg P.O.): 4/6 | Mortality Ratio ([5]; 1.50 gm/kg P.O.): 5/6 | Mortality Ratio ([5]; 2.00 gm/kg P.O.): 6/6 | toxicity compared with fenfluramine [5]: considerably less toxic than fenfluramine | toxicity relative to fenfluramine [5]: approximately four times less toxic than fenfluramine | LD50 [6]: 950 mg/kg | stimulatory effect ([8]; high doses (300-1000 mg/kg)): only a weak stimulatory effect

CN[C@@H](C)Cc1ccccc1 [Methamphetamine, methamphetamine]
stimulant effects [8]: stimulant effects

CCNC(C)Cc1cccc(C(F)(F)F)c1 (centres unmarked) [Fenfluramine, reference compound]
% Change From Control Value in Average Daily Consumption of Food ([2]; 5 mg/kg P.O., rats): -18.7% | % Change From Control Value in Average Daily Consumption of Food ([2]; 10 mg/kg P.O., rats): -39.3% | % Change From Control Value in Average Daily Consumption of Food ([2]; 20 mg/kg P.O., rats): -50.5% | Calculated ED50 (dose necessary to reduce the intake of food by 50%) ([2]; P.O., rats): 20.7 mg/kg | ED50 ([2]; P.O., rats): 20 mg/kg | Response Rate (percentage deviation from baseline rate) [7, 11]: +15% | Shock Rate (percentage deviation from baseline rate) [7, 11]: -50% | effect on performance / behavior [7]: amphetamine-like effect on performance | effect on performance in Sidman Avoidance test [7]: all doses to be effective in producing significant results; also recorded: results indicative of amphetamine-like compounds | effect on response rate [7]: increase in response rate | effect on shock rate [7]: decrease in shock rate | intestinal absorption of triglycerides ([9]; Bizzi et al.): inhibition of the intestinal absorption of triglycerides | plasma triglycerides ([9]; fed, but not fasted, animals, Garattini et al.): decrease in plasma triglycerides in fed, but not fasted, animals | concentration of plasma free fatty acids ([9]; rats, Bizzi et al.): rapid increase | rise in plasma triglycerides after olive oil gavage ([9]; several hours after olive oil gavage, prior treatment of rats): inhibited | Serum Free Fatty Acids [3]: 919±61 μEq/liter | Serum Concentration, Cholesterol [3]: 140±3 mg% | Serum Concentration, Glucose [3]: 160±9 mg% | Serum Concentration, Glycerol [3]: 1.6±.10 mg% | Serum Concentration, Triglycerides [3]: 61±1 mg% | effect on olive oil induced increase in serum cholesterol ([3]; in words): unaffected | Mortality Ratio ([5]; 0.1 gm/kg P.O.): 0/6 | Mortality Ratio ([5]; 0.2 gm/kg P.O.): 2/6 | Mortality Ratio ([5]; 0.25 gm/kg P.O.): 4/6 | Mortality Ratio ([5]; 0.3 gm/kg P.O.): 5/6 | LD50 [6]: 225 mg/kg | sedative or stimulant action ([10]; Nursing 74): acts as a sedative rather than a stimulant | glucose tolerance in diabetics ([10]; Turtle et al.): appears to improve glucose tolerance in diabetics | undesirable side effects ([10]; diabetics, Turtle et al.): without producing undersirable side effects | post absorption glucose levels ([10]; given before meals, maturity onset and insulin-requiring diabetics, Turtle et al.): consistently reduced post absorption glucose levels | stimulant effects [8]: stimulant effects
